Tested on: OVCAR-5 complex spheroids, viability
Assay: Anticancer human tumor OVCAR-5 cell line growth inhibition;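 note: spheroids exposed to agents for seven days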;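 for viability, T/C: 100% = DMSO vehicle control wells viability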
Details: for IC50: curve of first compound; for viability, T/C: stronger effect = lower value
Procedure, shortened: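 Drug combinations with the LSD1 inhibitor iadademstat tested on tumor cells co-cultured as spheroids with endothelial cells and mesenchymal stem cells. Concentrations descended in half-log increments from clinical Cmax or 10 microM.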

Q: Which results are given for `CC[C@@]1(O)C(=O)OCc2c1cc1n(c2=O)Cc2cc3c(CN(C)C)c(O)ccc3nc2-1` + NC1CC1c1ccc(-c2cccc(O)c2)cc1?
A: IC50 (second compound 0.1 µM): 3.05 nM; IC50 (second compound 0.316 µM): 3.4 nM; IC50 (second compound 1 µM): 2.31 nM; IC50 (second compound 3.16 µM): 2.27 nM; IC50 (second compound 10 µM): 2.32 nM; viability, T/C (second compound 0.1 µM, first compound 0.000316 µM): 96.1%; viability, T/C (second compound 0.1 µM, first compound 0.001 µM): 83.5%; viability, T/C (second compound 0.1 µM, first compound 0.00316 µM): 47.5%; viability, T/C (second compound 0.1 µM, first compound 0.01 µM): 32.3%; viability, T/C (second compound 0.1 µM, first compound 0.0316 µM): 35.6%; viability, T/C (second compound 0.1 µM, first compound 0.1 µM): 18.8%; viability, T/C (second compound 0.316 µM, first compound 0.000316 µM): 102%; viability, T/C (second compound 0.316 µM, first compound 0.001 µM): 87.3%; viability, T/C (second compound 0.316 µM, first compound 0.00316 µM): 48.9%; viability, T/C (second compound 0.316 µM, first compound 0.01 µM): 34.3%; viability, T/C (second compound 0.316 µM, first compound 0.0316 µM): 33%; viability, T/C (second compound 0.316 µM, first compound 0.1 µM): 19.8%; viability, T/C (second compound 1 µM, first compound 0.000316 µM): 101%; viability, T/C (second compound 1 µM, first compound 0.001 µM): 78.3%; viability, T/C (second compound 1 µM, first compound 0.00316 µM): 38.6%; viability, T/C (second compound 1 µM, first compound 0.01 µM): 30.5%; viability, T/C (second compound 1 µM, first compound 0.0316 µM): 34.4%; viability, T/C (second compound 1 µM, first compound 0.1 µM): 18.4%; viability, T/C (second compound 3.16 µM, first compound 0.000316 µM): 88.1%; viability, T/C (second compound 3.16 µM, first compound 0.001 µM): 78.8%; viability, T/C (second compound 3.16 µM, first compound 0.00316 µM): 37.9%; viability, T/C (second compound 3.16 µM, first compound 0.01 µM): 33.1%; viability, T/C (second compound 3.16 µM, first compound 0.0316 µM): 33.4%; viability, T/C (second compound 3.16 µM, first compound 0.1 µM): 18.7%; viability, T/C (second compound 10 µM, first compound 0.000316 µM): 93.3%; viability, T/C (second compound 10 µM, first compound 0.001 µM): 75.6%; viability, T/C (second compound 10 µM, first compound 0.00316 µM): 40.1%; viability, T/C (second compound 10 µM, first compound 0.01 µM): 31.8%; viability, T/C (second compound 10 µM, first compound 0.0316 µM): 37.7%; viability, T/C (second compound 10 µM, first compound 0.1 µM): 20.7%

Source: PubChem BioAssay AID1918956 (Molecular Pharmacology Branch, DTP, NCI, 2023)
